The target in data set [1] is T1, wild-type nAChR α7 receptors (Homo sapiens, UniProt P36544).
T1 construct: expressed in transfected cells; host or cells: Xenopus laevis oocytes
Put plainly: Positive modulation of acetylcholine-induced currents at nAChR α7 receptors expressed in Xenopus laevis oocytes (two-electrode voltage clamp). The format is cell-based. As for the experimental part:
In this example the positive modulation of wild-type nAChR α7 receptors by Compound 3 (FIGS. 1A and 1B) was determined using nAChR α7 receptors heterologously expressed in Xenopus laevis oocytes.
The electrical current through the nAChR α7 channel was measured using conventional two-electrode voltage clamp and nAChR α7 currents were activated by applying pulses of agonist-containing solution onto the nAChR α7 expressing oocyte.
In brief, the oocytes were placed in a recording chambers and continuously superfused with an Oocyte Ringer (OR) solution containing 90 mM NaCl, 2.5 mM KCl, 2.5 mM CaCl2, 1 mM MgCl2 and 5 mM HEPES (pH adjusted to 7.4). The oocytes were clamped at −60 mV and currents were induced by applying 20 s pulses of 100 μM acetylcholine dissolved in OR. The intervals between the acetylcholine applications were 5 minutes, during which the oocytes were washed with OR. The first three applications were control applications to insure a constant response level of 100 μM acetylcholine.
The positive modulation in the presence of Compound 3 was calculated as (test-control)/control*100% and the concentration response curve for this positive modulation was fitted to the sigmoidal logistic equation: I=Imax/(1+(EC50/[compound])^n), where Imax represents the maximal modulation of the control response, EC50 is the concentration causing a half maximal response, and n is the slope coefficient.

Here are results for 13 molecules from US8101649B2, “N-acylhydrazone derivatives useful as modulators of nicotinic acetylcholine receptors” (Neurosearch A/S, priority 2007, dated 2012).

The structures appear in SMILES notation.

T1 sequence (P36544 23-502): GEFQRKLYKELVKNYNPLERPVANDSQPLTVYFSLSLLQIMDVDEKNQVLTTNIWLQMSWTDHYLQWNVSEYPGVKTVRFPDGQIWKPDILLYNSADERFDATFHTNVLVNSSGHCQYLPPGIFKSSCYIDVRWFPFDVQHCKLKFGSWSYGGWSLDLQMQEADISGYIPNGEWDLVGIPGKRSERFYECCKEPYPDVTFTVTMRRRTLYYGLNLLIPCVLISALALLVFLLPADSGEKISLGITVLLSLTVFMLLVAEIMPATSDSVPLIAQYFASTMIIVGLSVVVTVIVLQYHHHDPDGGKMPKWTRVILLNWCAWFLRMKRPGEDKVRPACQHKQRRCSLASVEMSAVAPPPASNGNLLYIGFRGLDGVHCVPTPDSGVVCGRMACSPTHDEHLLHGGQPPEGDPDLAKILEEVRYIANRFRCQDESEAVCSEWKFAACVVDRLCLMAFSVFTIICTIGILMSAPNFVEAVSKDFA

On to `O=C(CCc1c[nH]c2ccccc12)N/N=C/c1ccc(F)cc1` [Compound 3, 3-(1H-Indol-3-yl)-propionic acid [1-(4-fluoro-phenyl)-meth-(E)-ylidene]-hydrazide], for which the “Imax (maximal modulation of the acetylcholine control response)” value in data set [1] (100 μM acetylcholine, (test-control)/control*100%, fitted to the sigmoidal logistic equation) is reported as 140%. For the same molecule, the EC50 in data set [1] (100 μM acetylcholine, oocytes clamped at −60 mV, 0.01-31.6 μM compound applied 30 s before and during acetylcholine, read-out: EC50 (concentration causing a half maximal response) for positive modulation of acetylcholine responses) was 4.1 µM. In addition, in data set [1] (0.01-31.6 μM compound with 100 μM acetylcholine), the “effect on acetylcholine-induced current amplitude” value is recorded as “robust increase”. Broadly, the melting point is the temperature, or range, at which the solid turns liquid. The molecule `O=C(CCc1c[nH]c2ccccc12)N/N=C/c1ccccc1` [Compound 3A, 3-(1H-Indol-3-yl)-propionic acid [1-phenyl-meth-(E)-ylidene]-hydrazide] yielded a melting point of 169.8 to 171.2 °C. `COc1ccc(/C=N/NC(=O)CCc2c[nH]c3ccccc23)cc1` [Compound 3B, 3-(1H-Indol-3-yl)-propionic acid [1-(4-methoxy-phenyl)-meth-(E)-ylidene]-hydrazide]: the melting point was in the range of 168.3 to 169.7 °C. Same read-out and setting: the value for `O=C(CCc1c[nH]c2ccccc12)N/N=C/c1ccsc1` [Compound 3D, 3-(1H-Indol-3-yl)-propionic acid [1-thiophen-3-yl-meth-(E)-ylidene]-hydrazide] was 145.5 to 148.1 °C; that for `O=C(CCc1c[nH]c2ccccc12)N/N=C/c1ccccc1F` [Compound 3E, 3-(1H-Indol-3-yl)-propionic acid [1-(2-fluoro-phenyl)-meth-(E)-ylidene]-hydrazide] was 118 to 123 °C. Regarding `O=C(CCc1c[nH]c2ccccc12)N/N=C/c1cccs1` [Compound 3F, 3-(1H-Indol-3-yl)-propionic acid [1-thiophen-2-yl-meth-(E)-ylidene]-hydrazide], the melting point lay within 146.5 to 149.4 °C.

`O=C(CCc1c[nH]c2ccccc12)N/N=C/c1ccc(Cl)cc1` [Compound 3G, 3-(1H-Indol-3-yl)-propionic acid [1-(4-chloro-phenyl)-meth-(E)-ylidene]-hydrazide]: the melting point was 201.5 to 202.5 °C. For `O=C(CCc1c[nH]c2ccc(F)cc12)N/N=C/c1ccccc1` [Compound 3I, 3-(5-Fluoro-1H-indol-3-yl)-propionic acid [1-phenyl-meth-(E)-ylidene]-hydrazide], the melting point lay in the range of 171.2 to 173.9 °C. On to `O=C(CCc1c[nH]c2ccc(F)cc12)N/N=C/c1ccccc1F` [Compound 3J, 3-(5-Fluoro-1H-indol-3-yl)-propionic acid [1-(2-fluoro-phenyl)-meth-(E)-ylidene]-hydrazide], for which the melting point was in the range of 132.8 to 134 °C. The same measure, in the same setting: under `C/C(=N\NC(=O)CCc1c[nH]c2ccccc12)c1ccccc1` [Compound 3K, 3-(1H-Indol-3-yl)-propionic acid [1-phenyl-eth-(E)-ylidene]-hydrazide] stands 156.2 to 158.2 °C; under `O=C(CCc1c[nH]c2ccccc12)N/N=C1\CCCc2ccccc21` [Compound 3L, 3-(1H-Indol-3-yl)-propionic acid [3,4-dihydro-2H-naphthalen-(1E)-ylidene]-hydrazide], 119.3 to 120.2 °C. As for `O=C(CCc1c[nH]c2ccc(F)cc12)N/N=C/c1ccc(F)cc1` [Compound 3M, 3-(5-Fluoro-1H-indol-3-yl)-propionic acid [1-(4-fluoro-phenyl)-meth-(E)-ylidene]-hydrazide], the melting point was in the range of 213.8 to 215.3 °C. `CC1=C/C(=N/NC(=O)CCc2c[nH]c3ccccc23)c2ccccc2C1=O` [Compound 3N, 3-(1H-Indol-3-yl)-propionic acid [3-methyl-4-oxo-4H-naphthalen-(1Z)-ylidene]-hydrazide]: the melting point lay within 248.6 to 249.5 °C.
